From patent US9809623B2, “α4β7 peptide monomer and dimer antagonists” (Protagonist Therapeutics, Inc., priority 2014, dated 2017)
Values joined by “and” are separate entries in the source; they are usually repeats but may differ in a detail not shown here. Equal entries are not always repeated. Where two headings read alike, the source gives them in different places. Numbered stars: 1 amine (or outer) side, 2 acyl side, 3 side chain; on linkers, the order of the positions; unused ones are H or OH. Bridge positions count the residues as written; N and C are the ends. Square brackets hold non-standard residues; d marks the D form. Peptide text beside a SMILES is read from it. I, II: the chains in the order shown. Phe(4-tBu) = CC(C)(C)c1ccc(C[C@H](N)C(=O)O)cc1; Diglycolyl = O=C(COCC(=O)[*:2])[*:1]; NMeR = CN[C@@H](CCCNC(=N)N)C(=O)O; β3hE = N[C@@H](CCC(=O)O)CC(=O)O; NMeK = CN[C@@H](CCCCN)C(=O)O; Pen = CC(C)(S)[C@H](N)C(=O)O

Key:
[1] = molecular target: T1, α4β1 (Homo sapiens, UniProt P05556+P13612, DEL729-798); assay: α4β1-VCAM Competition ELISA; assay type: binding
T1 construct: purchased R&D Systems 5668-A4
T1 sequence (P13612 34-977 limits assumed, stated change not applied): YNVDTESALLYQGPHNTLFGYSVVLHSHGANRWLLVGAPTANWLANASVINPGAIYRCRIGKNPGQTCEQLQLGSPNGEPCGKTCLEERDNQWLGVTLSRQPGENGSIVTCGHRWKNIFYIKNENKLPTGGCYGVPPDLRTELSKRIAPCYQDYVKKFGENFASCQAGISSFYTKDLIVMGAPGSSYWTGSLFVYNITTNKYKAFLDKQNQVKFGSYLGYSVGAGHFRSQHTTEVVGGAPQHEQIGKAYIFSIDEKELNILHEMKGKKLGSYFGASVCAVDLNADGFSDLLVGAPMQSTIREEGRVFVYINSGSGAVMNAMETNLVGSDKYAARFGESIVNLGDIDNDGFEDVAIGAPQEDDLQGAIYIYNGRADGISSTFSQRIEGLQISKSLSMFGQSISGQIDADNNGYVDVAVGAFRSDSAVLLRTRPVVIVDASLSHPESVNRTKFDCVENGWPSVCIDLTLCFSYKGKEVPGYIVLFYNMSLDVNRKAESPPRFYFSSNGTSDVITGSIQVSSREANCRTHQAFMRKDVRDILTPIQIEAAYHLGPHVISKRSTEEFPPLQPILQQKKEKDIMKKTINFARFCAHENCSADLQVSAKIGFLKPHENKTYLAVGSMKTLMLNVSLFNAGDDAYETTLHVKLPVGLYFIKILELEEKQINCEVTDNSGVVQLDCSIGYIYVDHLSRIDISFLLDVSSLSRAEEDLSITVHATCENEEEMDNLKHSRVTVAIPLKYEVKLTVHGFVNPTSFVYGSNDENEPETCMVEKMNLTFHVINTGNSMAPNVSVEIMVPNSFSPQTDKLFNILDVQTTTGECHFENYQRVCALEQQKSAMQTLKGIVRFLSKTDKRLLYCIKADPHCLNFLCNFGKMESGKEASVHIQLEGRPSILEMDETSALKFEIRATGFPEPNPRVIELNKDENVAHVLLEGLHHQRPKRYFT
T1 sequence (P05556 21-728 limits assumed, stated change not applied): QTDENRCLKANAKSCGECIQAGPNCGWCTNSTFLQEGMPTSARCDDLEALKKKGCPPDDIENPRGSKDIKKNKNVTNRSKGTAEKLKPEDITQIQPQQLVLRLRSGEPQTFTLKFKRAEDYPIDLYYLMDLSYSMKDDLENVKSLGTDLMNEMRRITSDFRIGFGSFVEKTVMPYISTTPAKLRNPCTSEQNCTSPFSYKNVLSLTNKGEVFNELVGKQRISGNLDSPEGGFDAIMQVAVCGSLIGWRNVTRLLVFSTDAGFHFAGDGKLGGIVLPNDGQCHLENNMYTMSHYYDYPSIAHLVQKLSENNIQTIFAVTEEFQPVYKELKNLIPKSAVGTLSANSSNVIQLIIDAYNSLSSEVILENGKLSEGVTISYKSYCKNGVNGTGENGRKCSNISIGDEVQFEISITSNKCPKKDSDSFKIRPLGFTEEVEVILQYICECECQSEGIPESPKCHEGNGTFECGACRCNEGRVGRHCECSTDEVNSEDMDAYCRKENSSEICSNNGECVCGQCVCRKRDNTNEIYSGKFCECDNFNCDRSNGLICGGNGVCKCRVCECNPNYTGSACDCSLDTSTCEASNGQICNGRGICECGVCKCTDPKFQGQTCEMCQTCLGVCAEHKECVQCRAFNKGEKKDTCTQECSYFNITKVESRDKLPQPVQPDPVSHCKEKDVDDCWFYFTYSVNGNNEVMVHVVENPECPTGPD
Outline: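 ELISA plates were coated with VCAM-1 Fc at 400 ng/well. Peptide dilutions (highest final 100 μM) and 60 nM α4β1 were incubated 2 h at 37 °C in pH 7.6 Tris buffer containing 1 mM Mn2+ or Mg2+. Integrin retained on the plate was detected by 9F10 antibody, then HRP secondary, with TMB absorbance at 450 nm.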

[2] = Simulated Intestinal Fluid (SIF) Stability Assay; assay type: in vitro ADME, porcine; details: for half-life at 22 μM: pig
Outline: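 Intestinal stability: percent peptide remaining over time, by LC-MS/MS peak-area ratio to internal standard, fitted to first-order decay for half-life. Conditions: 22 μM peptide, 1% pancreatin in pH 6.5 blank FASSIF, 37 °C.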

[3] = molecular target: α4β7 (Homo sapiens, UniProt P13612+P26010); assay: α4β7-MAdCAM Cell Adhesion Assay (RPMI 8866 human cells); assay type: cell-based; design: host or cells: RPMI 8866 human B lymphoblastoid cells
Chain of α4β7 (P13612 34-1032): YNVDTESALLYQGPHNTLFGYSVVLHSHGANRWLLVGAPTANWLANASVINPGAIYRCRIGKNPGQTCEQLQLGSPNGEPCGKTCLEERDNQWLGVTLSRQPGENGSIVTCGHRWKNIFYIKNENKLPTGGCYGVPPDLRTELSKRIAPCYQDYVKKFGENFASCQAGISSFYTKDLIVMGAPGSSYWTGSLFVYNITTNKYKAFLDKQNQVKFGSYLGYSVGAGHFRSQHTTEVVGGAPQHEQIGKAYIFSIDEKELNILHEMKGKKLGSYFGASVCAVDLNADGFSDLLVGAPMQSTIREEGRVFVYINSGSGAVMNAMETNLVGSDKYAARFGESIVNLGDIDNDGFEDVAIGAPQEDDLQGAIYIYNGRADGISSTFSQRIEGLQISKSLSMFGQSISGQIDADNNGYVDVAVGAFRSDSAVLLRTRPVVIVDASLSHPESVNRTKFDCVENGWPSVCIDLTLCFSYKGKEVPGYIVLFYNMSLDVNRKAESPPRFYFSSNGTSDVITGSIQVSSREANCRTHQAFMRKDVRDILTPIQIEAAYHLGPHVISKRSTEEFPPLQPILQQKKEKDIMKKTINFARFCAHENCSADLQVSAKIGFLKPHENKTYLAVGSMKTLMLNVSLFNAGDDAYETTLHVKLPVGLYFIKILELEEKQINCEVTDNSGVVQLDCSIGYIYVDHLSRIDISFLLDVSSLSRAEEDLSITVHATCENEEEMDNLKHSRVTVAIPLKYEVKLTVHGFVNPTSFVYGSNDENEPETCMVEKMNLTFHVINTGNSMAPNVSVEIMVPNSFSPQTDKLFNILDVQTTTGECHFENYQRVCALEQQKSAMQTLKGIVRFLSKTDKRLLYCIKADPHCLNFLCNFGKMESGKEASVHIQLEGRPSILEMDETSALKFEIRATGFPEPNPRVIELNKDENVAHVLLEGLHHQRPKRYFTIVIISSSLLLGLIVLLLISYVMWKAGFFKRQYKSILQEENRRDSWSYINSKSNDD
Chain of α4β7 (P26010 20-798): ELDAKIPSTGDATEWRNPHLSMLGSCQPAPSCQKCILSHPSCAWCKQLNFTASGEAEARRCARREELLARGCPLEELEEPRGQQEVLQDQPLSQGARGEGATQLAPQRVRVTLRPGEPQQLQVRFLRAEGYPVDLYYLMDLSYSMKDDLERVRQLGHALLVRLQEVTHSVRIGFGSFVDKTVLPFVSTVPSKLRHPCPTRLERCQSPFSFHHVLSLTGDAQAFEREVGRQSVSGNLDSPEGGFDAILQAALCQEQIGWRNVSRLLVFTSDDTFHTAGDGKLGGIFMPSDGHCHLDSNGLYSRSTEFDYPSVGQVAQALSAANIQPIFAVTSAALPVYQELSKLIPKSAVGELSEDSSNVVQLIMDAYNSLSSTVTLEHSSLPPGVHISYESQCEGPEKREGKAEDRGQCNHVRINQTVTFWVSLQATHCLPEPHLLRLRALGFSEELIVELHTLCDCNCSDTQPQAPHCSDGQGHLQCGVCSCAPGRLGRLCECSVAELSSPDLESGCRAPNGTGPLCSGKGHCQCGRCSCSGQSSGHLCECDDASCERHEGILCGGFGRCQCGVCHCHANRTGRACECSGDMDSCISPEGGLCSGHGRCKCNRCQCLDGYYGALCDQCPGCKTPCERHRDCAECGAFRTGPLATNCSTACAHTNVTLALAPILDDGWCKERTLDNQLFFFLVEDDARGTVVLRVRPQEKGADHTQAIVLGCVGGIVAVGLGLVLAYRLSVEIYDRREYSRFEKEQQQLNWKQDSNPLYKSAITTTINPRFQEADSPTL
Outline: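 Adhesion read-out: MTT absorbance at 570 nm minus no-cell wells, after three washes. Plates coated with rh MAdCAM-1/Fc received peptide dilutions plus 200,000 RPMI 8866 cells in Mn2+ (1 mM)-supplemented DMEM, 0.1% BSA, HEPES pH 7, incubated 30-45 min, 37 °C.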

[4] = Table 4-B, read-out: ELISA_α4β1 IC50
[5] = simulated intestinal fluid (SIF) with 1% porcine pancreatin, pH 6.5, Table 4-C, t1/2, > means assay stopped at that time, read-out: SIF (porcine) Min
[6] = Table 4-B, read-out: Cell Adhesion α4β7 IC50
[7] = Table 3-B, Selectivity (α4β1), range classes, read-out: α4β1 ELISA IC50
[8] = Table 3-B, Potency (α4β7), range classes, read-out: α4β7 cell (Hu) IC50

SMILES | IC50 [1, 4] [nM] | half-life at 22 μM [2, 5] [h] | IC50 [3, 6] [nM] | IC50 [1, 7] | Stabilty SIF t1/2, in hr ([2]; Table 3-B, alone or in parentheses after >360) [h] | half-life at 22 μM ([2]; simulated intestinal fluid (SIF) with porcine pancreatin, pH 6.5, Table 3-B, > means experiment was stopped at that time and half life was not reached, read-out: Stabilty SIF t1/2) [h] | half-life at 22 μM ([2]; simulated intestinal fluid (SIF) with porcine pancreatin, pH 6.5, Table 3-B, alone or in parentheses after >360, read-out: Stabilty SIF t1/2, in hr (converted)) [h] | IC50 [3, 8] [nM] | half-life at 22 μM ([2]; simulated intestinal fluid (SIF) with 1% porcine pancreatin, pH 6.5, Table 3-B, > means experiment was stopped at that time and half life was not reached, read-out: Stabilty SIF t1/2) [h]
CC(=O)N[C@H]1CSSC(C)(C)[C@@H](C(=O)N[C@@H](Cc2c[nH]c3ccccc23)C(=O)N[C@H](CCCCNC(=O)COCC(=O)NCCCC[C@@H](NC(=O)[C@H](Cc2c[nH]c3ccccc23)NC(=O)[C@H]2NC(=O)[C@H](CC(C)C)NC(=O)[C@H]([C@@H](C)O)NC(=O)[C@H](CC(=O)O)NC(=O)[C@H](CO)NC(=O)[C@H](CCCNC(=N)N)N(C)C(=O)[C@@H](NC(C)=O)CSSC2(C)C)C(N)=O)C(N)=O)NC(=O)[C@H](CC(C)C)NC(=O)[C@H]([C@@H](C)O)NC(=O)[C@H](CC(=O)O)NC(=O)[C@H](CO)NC(=O)[C@H](CCCNC(=N)N)N(C)C1=O [compound 204, (Ac-C-N-Me-R-S-D-T-L-Pen-W-k-NH2)2-DIG] (I: Ac-C[NMeR]SDTL[Pen]W[dK]-NH2 / II: Ac-C[NMeR]SDTL[Pen]W[dK]-NH2; disulfide I:1-I:7, II:1-II:7 (inferred); linker I:9-II:9 via Diglycolyl (inferred)) | 463 | > 6 | 22 |  |  |  |  |  | 
CC(=O)N[C@@H]1C(=O)N(C)[C@@H](CCCNC(=N)N)C(=O)N[C@@H](CO)C(=O)N[C@@H](CC(=O)O)C(=O)N[C@@H]([C@@H](C)O)C(=O)N[C@@H](CC(C)C)C(=O)N[C@H](C(=O)N[C@@H](Cc2ccc(C(C)(C)C)cc2)C(=O)N[C@@H](CCC(=O)O)CC(=O)N[C@H](CCCCNC(=O)COCC(=O)NCCCC[C@@H](NC(=O)C[C@H](CCC(=O)O)NC(=O)[C@H](Cc2ccc(C(C)(C)C)cc2)NC(=O)[C@H]2NC(=O)[C@H](CC(C)C)NC(=O)[C@H]([C@@H](C)O)NC(=O)[C@H](CC(=O)O)NC(=O)[C@H](CO)NC(=O)[C@H](CCCNC(=N)N)N(C)C(=O)[C@@H](NC(C)=O)C(C)(C)SSC2(C)C)C(N)=O)C(N)=O)C(C)(C)SSC1(C)C [compound 132] (I: Ac-[Pen][NMeR]SDTL[Pen][Phe(4-tBu)][β3hE][dK]-NH2 / II: Ac-[Pen][NMeR]SDTL[Pen][Phe(4-tBu)][β3hE][dK]-NH2; disulfide I:1-I:7, II:1-II:7; linker I:10-II:10 via Diglycolyl) |  |  |  | 100 to 500 nM and 500 to 1000 nM | 11 | > 6 | 10.7 | < 10 | 
CC(=O)N[C@H]1CSSC[C@@H](C(=O)NCC(=O)N[C@@H](CCC(=O)O)C(N)=O)NC(=O)[C@H](CC(C)C)NC(=O)[C@H]([C@@H](C)O)NC(=O)[C@H](CC(=O)O)NC(=O)[C@H](CO)NC(=O)[C@H](CCCNC(=N)N)NC1=O [compound 194, Ac-C-R-S-D-T-L-C-G-E-NH2] (Ac-CRSDTLCGE-NH2; disulfide 1-7) | 2020 | < 0.0167 | 590 |  |  |  |  |  | 
CC(=O)N[C@H]1CSSC(C)(C)[C@@H](C(=O)N[C@@H](CCC(=O)O)C(=O)N[C@H](CCCCNC(=O)COCC(=O)NCCCC[C@@H](NC(=O)[C@H](CCC(=O)O)NC(=O)[C@H]2NC(=O)[C@H](CC(C)C)NC(=O)[C@H]([C@@H](C)O)NC(=O)[C@H](CC(=O)O)NC(=O)[C@H](CO)NC(=O)[C@H](CCCNC(=N)N)N(C)C(=O)[C@@H](NC(C)=O)CSSC2(C)C)C(N)=O)C(N)=O)NC(=O)[C@H](CC(C)C)NC(=O)[C@H]([C@@H](C)O)NC(=O)[C@H](CC(=O)O)NC(=O)[C@H](CO)NC(=O)[C@H](CCCNC(=N)N)N(C)C1=O [compound 205, (Ac-C-N-Me-R-S-D-T-L-Pen-E-k-NH2)2-DIG] (I: Ac-C[NMeR]SDTL[Pen]E[dK]-NH2 / II: Ac-C[NMeR]SDTL[Pen]E[dK]-NH2; disulfide I:1-I:7, II:1-II:7 (inferred); linker I:9-II:9 via Diglycolyl (inferred)) | 444 | > 6 | 26 |  |  |  |  |  | 
CC(=O)N[C@@H]1C(=O)N(C)[C@@H](CCCNC(=N)N)C(=O)N[C@@H](CO)C(=O)N[C@@H](CC(=O)O)C(=O)N[C@@H]([C@@H](C)O)C(=O)N[C@@H](CC(C)C)C(=O)N[C@H](C(=O)N[C@@H](Cc2ccc(C(C)(C)C)cc2)C(=O)N[C@@H](CCC(=O)O)CC(=O)N(C)[C@@H](CCCCNC(=O)COCC(=O)NCCCC[C@@H](C(N)=O)N(C)C(=O)C[C@H](CCC(=O)O)NC(=O)[C@H](Cc2ccc(C(C)(C)C)cc2)NC(=O)[C@H]2NC(=O)[C@H](CC(C)C)NC(=O)[C@H]([C@@H](C)O)NC(=O)[C@H](CC(=O)O)NC(=O)[C@H](CO)NC(=O)[C@H](CCCNC(=N)N)N(C)C(=O)[C@@H](NC(C)=O)C(C)(C)SSC2(C)C)C(N)=O)C(C)(C)SSC1(C)C [compound 149] (I: Ac-[Pen][NMeR]SDTL[Pen][Phe(4-tBu)][β3hE][NMeK]-NH2 / II: Ac-[Pen][NMeR]SDTL[Pen][Phe(4-tBu)][β3hE][NMeK]-NH2; disulfide I:1-I:7, II:1-II:7; linker I:10-II:10 via Diglycolyl) |  |  |  | 500 to 1000 nM |  |  |  | < 10 | > 5
